# Results: patent US9617251B2, “Indanylaminopyridylcyclopropanecarboxylic acids, pharmaceutical compositions and uses thereof” (BOEHRINGER INGELHEIM INTERNATIONAL GMBH, priority 2015, dated 2017)
# Tests used:
# human GPR40 receptor = human GPR40 receptor (Homo sapiens, UniProt O14842); assay: IP1 accumulation measurements using the IPOne assay system (1321N1 cells stably expressing human GPR40 receptor); type: cell-based; conditions: 1321N1 cells expressing human GPR40, 1 h stimulation at 37° C.
# Chain of human GPR40 receptor (O14842 whole entry): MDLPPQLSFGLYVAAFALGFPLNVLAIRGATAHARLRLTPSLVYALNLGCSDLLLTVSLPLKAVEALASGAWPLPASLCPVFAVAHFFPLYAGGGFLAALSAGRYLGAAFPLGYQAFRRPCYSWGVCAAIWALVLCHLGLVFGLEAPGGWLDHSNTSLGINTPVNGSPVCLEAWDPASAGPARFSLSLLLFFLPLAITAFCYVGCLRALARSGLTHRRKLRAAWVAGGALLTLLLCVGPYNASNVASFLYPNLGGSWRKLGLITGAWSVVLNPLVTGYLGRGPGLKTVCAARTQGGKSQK
# Protocol: IP1 accumulation measurements using the IPOne assay system—1321N1 cells stably expressing human GPR40 receptor (Euroscreen, Belgium) are seeded 24 h before the assay in white 384-well plates in culture medium containing 10% FCS, 1% Na-Pyruvate and 400 μg/mL G418. IP1 is assayed according to the manufacturer's description (Cisbio Bioassays, France). In brief, the assay is started by substitution of the culture medium by stimulation buffer (Hepes 10 mM, CaCl2 1 mM, MgCl2 0.5 mM, KCl 4.2 mM, NaCl 146 mM, glucose 5.5 mM and LiCl 50 mM, pH 7.4). Cells are stimulated for 1 h at 37° C., 5% CO2 by addition of the compounds that are diluted in stimulation buffer containing LiCl. Assays are stopped by adding HTRF-conjugates (IP1-d2 and Anti-IP1 cryptate Tb) and lysis buffer, provided by the manufacturer. After an incubation time of 1 h at room temperature plates are measured using an EnVision™, Perkin Elmer. The obtained fluorescence ratios at 665/615 […] are then used to calculate the pEC50 values using Assay Explorer 3.3 Software (Accelrys, Inc.) by interpolation using an IP1 reference curve and subsequent sigmoidal curve fitting allowing for a variable hill slope.
# [1] = Aqueous solubility in buffer vs acetonitrile/water (1/1), LC-UV; type: physicochemical; conditions: kinetic from dmso stock, buffer pH 2.2, 24 h shaking, 2.5% DMSO
# Protocol: The aqueous solubility of the compounds of the invention is determined by comparing the amount dissolved in buffer to the amount in an acetonitrile/water (1/1) solution. Starting from a 10 mM DMSO stock solution aliquots are diluted with acetonitrile/water (1/1) or buffer, respectively. After 24 h of shaking, the solutions are filtrated and analyzed by LC-UV. The amount dissolved in buffer is compared to the amount in the acetonitrile solution.
# Solubility is usually being measured from 0.001 to 0.125 mg/mL at a DMSO concentration of 2.5%. If more than 90% of the compound is dissolved in buffer, the value is marked with “>”.
# [2] = molecular target: T1, cytochrome P450 2C8-isoenzyme (Homo sapiens, UniProt P10632); assay: Inhibition of CYP-2C8 (deethylation of amodiaquine, human liver microsomes); type: in vitro ADME; conditions: CYP-2C8, human liver microsomes, amodiaquine 1 μM, 37° C.
# T1 construct: from tissue; host or cells: human liver microsomes
# T1 sequence (P10632 1-490): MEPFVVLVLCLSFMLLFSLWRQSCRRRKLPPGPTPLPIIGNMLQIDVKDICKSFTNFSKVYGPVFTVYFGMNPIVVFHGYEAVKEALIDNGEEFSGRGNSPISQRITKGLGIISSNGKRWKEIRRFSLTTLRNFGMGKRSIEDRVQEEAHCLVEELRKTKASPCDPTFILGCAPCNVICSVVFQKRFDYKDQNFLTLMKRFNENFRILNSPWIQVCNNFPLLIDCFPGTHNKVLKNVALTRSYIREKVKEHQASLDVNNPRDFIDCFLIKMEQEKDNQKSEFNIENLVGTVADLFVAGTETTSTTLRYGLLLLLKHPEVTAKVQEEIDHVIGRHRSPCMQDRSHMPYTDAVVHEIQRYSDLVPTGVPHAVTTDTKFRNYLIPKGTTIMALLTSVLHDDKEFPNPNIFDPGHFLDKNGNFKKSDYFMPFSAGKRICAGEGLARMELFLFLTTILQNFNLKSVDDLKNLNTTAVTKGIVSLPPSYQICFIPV
# Protocol: The inhibition of cytochrome P450 2C8-isoenzyme catalyzed deethylation of amodiaquine by the test compound is assayed at 37° C. with human liver microsomes. All assays are carried out on a robotic system in 96 well plates. The final incubation volume contains TRIS buffer (0.1 M), MgCl2 (5 mM), human liver microsomes (0.05 mg/mL), amodiaquine (1 μM) and the test compound at five different concentrations or no compound (high control) in duplicate (e.g. highest concentration 10-50 μM with subsequent serial 1:4 dilutions). Following a short preincubation period, reactions are started with the cofactor (NADPH, 1 mM) and stopped by cooling the incubation down to 8° C. and subsequently by addition of one volume of acetonitrile. An internal standard solution—the stable isotope d5-desethylamodiaquine—is added after quenching of incubations. Peak area analyte (=metabolite formed) and internal standard is determined by LC-MS/MS. The resulting peak area ratio analyte to internal standard in these incubations is compared to a control activity containing no test compound. Within each of the assay runs, the IC50 of a positive control inhibitor (Montelukast) is determined. Experimental IC50 values are calculated by least square regression according to the following equation: % control activity=(100% control activity/(1+(I/IC50)S))−B with I=inhibitor concentration; S=slope factor; B=background activity (lower plateau of the inhibition curve)
# (§1) If the inhibition of the reaction is already >50% at the lowest concentration of the test compound, the IC50 is assigned “<lowest concentration tested” (usually <0.4 μM). If the inhibition of the reaction is still <50% at the highest concentration of the test compound, the IC50 is assigned “>highest concentration tested” (usually >50 μM).
# [3] = molecular target: T2, cytochrome P450 2C9-isoenzyme (Homo sapiens, UniProt P11712); assay: Inhibition of CYP-2C9 (hydroxylation of diclofenac, human liver microsomes); type: in vitro ADME; conditions: CYP-2C9, human liver microsomes, diclofenac 10 μM, 37° C.
# T2 construct: from tissue; host or cells: human liver microsomes
# T2 sequence (P11712 whole entry): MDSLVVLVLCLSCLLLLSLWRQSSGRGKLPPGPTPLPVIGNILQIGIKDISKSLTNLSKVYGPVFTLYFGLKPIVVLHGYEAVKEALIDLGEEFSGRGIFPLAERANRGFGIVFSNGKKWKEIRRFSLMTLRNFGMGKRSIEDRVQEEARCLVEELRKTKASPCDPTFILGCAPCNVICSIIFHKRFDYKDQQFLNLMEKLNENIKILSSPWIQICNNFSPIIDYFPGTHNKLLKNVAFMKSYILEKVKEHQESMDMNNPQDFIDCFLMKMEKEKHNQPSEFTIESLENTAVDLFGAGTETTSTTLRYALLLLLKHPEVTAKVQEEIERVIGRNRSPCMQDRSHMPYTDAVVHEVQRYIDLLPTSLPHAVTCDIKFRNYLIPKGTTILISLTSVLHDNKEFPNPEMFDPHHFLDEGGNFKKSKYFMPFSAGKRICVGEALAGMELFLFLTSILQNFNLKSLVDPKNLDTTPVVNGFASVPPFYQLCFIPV
# Protocol: The inhibition of cytochrome P450 2C9-isoenzyme catalyzed hydroxylation of diclofenac by the test compound is assayed at 37° C. with human liver microsomes. All assays are carried out on a robotic system in 96 well plates. The final incubation volume contains TRIS buffer (0.1 M), MgCl2 (5 mM), human liver microsomes (0.1 mg/mL), diclofenac (10 μM) and the test compound at five different concentrations or no compound (high control) in duplicate (e.g., highest concentration 10-50 μM with subsequent serial 1:4 dilutions). Following a short preincubation period, reactions are started with the cofactor (NADPH, 1 mM) and stopped by cooling the incubation down to 8° C. and subsequently by addition of one volume of acetonitrile. An internal standard solution—the stable isotope ^13C6-hydroxydiclofenac—is added after quenching of incubations. Peak area analyte (=metabolite formed) and internal standard is determined by LC-MS/MS. The resulting peak area ratio analyte to internal standard in these incubations is compared to a control activity containing no test compound. Within each of the assay runs, the IC50 of a positive control inhibitor (sulfaphenazole) is determined. Experimental IC50 values are calculated by least square regression according to the following equation: % control activity=(100% control activity/(1+(I/IC50)S))−B with I=inhibitor concentration; S=slope factor; B=background activity (lower plateau of the inhibition curve)
# as §1
SMILES,EC50 (human GPR40 receptor) [nM],solubility at 24 h [1] [µg/mL],IC50 [2] [nM],IC50 [3] [nM]
Cc1cc(OCC(C)(C)O)cc(C)c1-c1cccc2c1CC[C@H]2Nc1ccc([C@H]2C[C@@H]2C(=O)O)cn1 [Example 79],23,,,
COc1cc(OC)c(F)c(-c2ccc(F)c3c2CC[C@H]3Nc2ccc([C@H]3C[C@@H]3C(=O)O)cn2)c1F [Example 57],107,99,19000,48000
Cc1cc(OCC2(O)CCSCC2)cc(C)c1-c1ccc(F)c2c1CC[C@H]2Nc1ccc([C@H]2C[C@@H]2C(=O)O)cn1 [Example 73],17,89,20000,45000
Cc1cc(OCC2(C)COC2)cc(C)c1-c1ccc(F)c2c1CC[C@H]2Nc1ccc([C@H]2C[C@@H]2C(=O)O)cn1 [Example 33],14,103,26000,> 50000
Cc1cc(OCC2CCOCC2)cc(C)c1-c1ccc(F)c2c1CC[C@H]2Nc1ccc([C@H]2C[C@@H]2C(=O)O)cn1 [Example 61],5,90,15000,33000
Cc1cc(-c2cc(=O)n(C)cn2)cc(C)c1-c1cccc2c1CC[C@H]2Nc1ccc([C@H]2C[C@@H]2C(=O)O)cn1 [Example 83],8,,,
Cc1cc(-c2ccn(C)c(=O)c2)cc(C)c1-c1cccc2c1CC[C@H]2Nc1ccc([C@H]2C[C@@H]2C(=O)O)cn1 [Example 81],8,,,
O=C(O)[C@H]1C[C@@H]1c1ccc(N[C@@H]2CCc3c(-c4ccccc4C(F)(F)F)cccc32)nc1 [Example 85],91,,,
COc1cc(F)c(-c2cccc3c2CC[C@H]3Nc2ccc([C@H]3C[C@@H]3C(=O)O)cn2)c(F)c1 [Example 84],212,,,
Cc1cc(C(=O)N(C)C)cc(C)c1-c1cccc2c1CC[C@H]2Nc1ccc([C@H]2C[C@@H]2C(=O)O)cn1 [Example 86],174,,,
"Cc1cc(OCCC(C)(C)O)cc(C)c1-c1cccc2c1CC[C@H]2Nc1ccc([C@@H]2C[C@H]2C(=O)O)cn1 [Example 10, (1R,2R)-2-(6-{(R)-4-[4-(3-Hydroxy-3-methyl-butoxy)-2,6-dimethyl-phenyl]-indan-1-ylamino}-pyridin-3-yl)-cyclopropanecarboxylic acid]",497,,,
Cc1cc(C(=O)O)cc(C)c1-c1ccc(F)c2c1CC[C@H]2Nc1ccc([C@H]2C[C@@H]2C(=O)O)cn1 [Example 40],940,,> 50000,> 50000
Cc1cc(OC2CCOCC2)cc(C)c1-c1ccc(F)c2c1CC[C@H]2Nc1ccc([C@H]2C[C@@H]2C(=O)O)cn1 [Example 15],18,,26000,> 50000
Cc1cc(OCC2(O)CCS(=O)(=O)CC2)cc(C)c1-c1ccc(F)c2c1CC[C@H]2Nc1ccc([C@H]2C[C@@H]2C(=O)O)cn1 [Example 64],29,,> 50000,> 50000
"Cc1cc(-c2nnn(C)n2)cc(C)c1-c1ccc(F)c2c1CC[C@H]2Nc1ccc(C2C[C@@H]2C(=O)O)cn1 (mixture of isomers) [Example 7, trans-2-(6-{(R)-4-[2,6-Dimethyl-4-(2-methyl-2H-tetrazol-5-yl)-phenyl]-7-fluoro-indan-1-ylamino}-pyridin-3-yl)-cyclopropanecarboxylic acid]",19,,38000,> 50000
"Cc1cc(OCCC(C)(C)O)cc(C)c1-c1cccc2c1CC[C@H]2Nc1ccc(C2C[C@@H]2C(=O)O)cn1 (mixture of isomers) [Example 6, trans-2-(6-{(R)-4-[4-(3-Hydroxy-3-methyl-butoxy)-2,6-dimethyl-phenyl]-indan-1-ylamino}-pyridin-3-yl)-cyclopropanecarboxylic acid]",19,,> 50000,> 50000
Cc1cc(OC2CCOCC2)cc(C)c1-c1cccc2c1CC[C@H]2Nc1ccc([C@H]2C[C@@H]2C(=O)O)cn1 [Example 77],20,,,
"Cc1cc(OCCC(C)(C)O)cc(C)c1-c1ccc(F)c2c1CC[C@H]2Nc1ccc([C@@H]2C[C@H]2C(=O)O)cn1 [Example 12, (1R,2R)-2-(6-{(R)-7-Fluoro-4-[4-(3-hydroxy-3-methyl-butoxy)-2,6-dimethyl-phenyl]-indan-1-ylamino}-pyridin-3-yl)-cyclopropanecarboxylic acid]",568,,,
"Cc1cc(-c2nnn(C)n2)cc(C)c1-c1cccc2c1CC[C@H]2Nc1ccc([C@@H]2C[C@H]2C(=O)O)cn1 [Example 9, (1R,2R)-2-(6-{(R)-4-[2,6-Dimethyl-4-(2-methyl-2H-tetrazol-5-yl)-phenyl]-indan-1-ylamino}-pyridin-3-yl)-cyclopropanecarboxylic acid]",259,,,
Cc1cc(OCC(C)(C)C#N)cc(C)c1-c1cccc2c1CC[C@H]2Nc1ccc([C@H]2C[C@@H]2C(=O)O)cn1 [Example 80],22,,,
Cc1cc(-c2ccc(=O)n(C)c2)cc(C)c1-c1cccc2c1CC[C@H]2Nc1ccc([C@H]2C[C@@H]2C(=O)O)cn1 [Example 82],18,,,
"Cc1cc(OCCC(C)(C)O)cc(C)c1-c1ccc(F)c2c1CC[C@H]2Nc1ccc(C2C[C@@H]2C(=O)O)cn1 (mixture of isomers) [Example 8, trans-2-(6-{(R)-7-Fluoro-4-[4-(3-hydroxy-3-methyl-butoxy)-2,6-dimethyl-phenyl]-indan-1-ylamino}-pyridin-3-yl)-cyclopropanecarboxylic acid]",16,,> 50000,> 50000
"Cc1cc(-c2nnn(C)n2)cc(C)c1-c1cccc2c1CC[C@H]2Nc1ccc(C2C[C@@H]2C(=O)O)cn1 (mixture of isomers) [Example 5, trans-2-(6-{(R)-4-[2,6-Dimethyl-4-(2-methyl-2H-tetrazol-5-yl)-phenyl]-indan-1-ylamino}-pyridin-3-yl)-cyclopropanecarboxylic acid]",16,,12000,48000
